Experimental data as given in patent publication US20220195379A1, “METHOD OF TESTTING INHIBITORY EFFECT OF CARBON DIOXIDE ON SPOILAGE CAUSING ABILITY OF SHEWANELLA PUTREFACIENS” (Shanghai Ocean University, priority 2022, published 2022).

Tested on: Shewanella putrefaciens
Assay: Inhibitory effect of CO2 on growth and spoilage causing ability, inoculated fillets in modified atmosphere packaging
Conditions: stored in the presence of CO2, versus control group
Description: Pre-frozen Shewanella putrefaciens (stored at −80° C. or less) was thawed at 30±2° C., inoculated to 5-10 mL of TSB, and cultured under shaking for 12 h to obtain a primary culture solution.
The primary culture solution was inoculated into another TSB liquid medium at an inoculation amount of 1% by weight, which was cultured under shaking for 6 h to obtain a bacterial suspension with a concentration of 10^7 CFU/mL.
A large yellow croaker with a weight of 1000±50 g was processed, and cut into a plurality of 100-g slices, which were washed with 0-4° C. water, and dried to prepare a plurality of samples. The large yellow croaker was oxygenated in a foam box during the transportation, and processed by bloodletting, evisceration, and head removal.
The samples were immersed into a 75% ethanol solution for 30 s, washed with sterile distilled water 3 times, and subjected to ultraviolet sterilization for 20 min to obtain a plurality of sterilized samples, where a mass ratio of the ethanol solution to the samples was 3:1. The bacterial suspension was diluted to a concentration of 10^4 CFU/mL, and inoculated to the sterilized samples to obtain a plurality inoculated samples, where the diluted bacterial suspension was 10% by weight of each sterilized sample such that a bacterial concentration of each sterilized sample was lower than or equal to 10^5 CFU/mL. […]

O=C=O [CO2, carbon dioxide]
Growth and reproduction rate of the Shewanella putrefaciens: significantly lower than that of the control group
